Test results taken from PubChem BioAssay (NCI).
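Tested at 5 concentrations; 48 h exposure; 96-well plates; endpoints linearly interpolated, else capped at highest concentration. Here, GI50 denotes the concentration required for 50% inhibition of growth. The concentration for full growth arrest is given as TGI.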

How the values were obtained:
Test in all cases: inhibition of tumour cell growth, NCI panel, 48 h
786-0 renal = tested on: 786-0 renal
A498 renal = tested on: A498 renal
A549 NSCLC = tested on: A549 NSCLC
ACHN renal = tested on: ACHN renal
BT-549 breast = tested on: BT-549 breast
CAKI-1 renal = tested on: CAKI-1 renal
CCRF-CEM leukemia = tested on: CCRF-CEM leukemia
COLO 205 colon = tested on: COLO 205 colon
DU-145 prostate = tested on: DU-145 prostate
EKVX NSCLC = tested on: EKVX NSCLC
HCC-2998 colon = tested on: HCC-2998 colon
HCT-116 colon = tested on: HCT-116 colon
HCT-15 colon = tested on: HCT-15 colon
HL-60(TB) leukemia = tested on: HL-60(TB) leukemia
HOP-62 NSCLC = tested on: HOP-62 NSCLC
HOP-92 NSCLC = tested on: HOP-92 NSCLC
HS 578T breast = tested on: HS 578T breast
HT29 colon = tested on: HT29 colon
IGROV1 ovarian = tested on: IGROV1 ovarian
K-562 leukemia = tested on: K-562 leukemia
KM12 colon = tested on: KM12 colon
LOX IMVI melanoma = tested on: LOX IMVI melanoma
M14 melanoma = tested on: M14 melanoma
MALME-3M melanoma = tested on: MALME-3M melanoma
MCF7 breast = tested on: MCF7 breast
MDA-MB-231 breast = tested on: MDA-MB-231 breast
MDA-MB-435 = tested on: MDA-MB-435
MOLT-4 leukemia = tested on: MOLT-4 leukemia
NCI-H226 lung = tested on: NCI-H226 lung
NCI-H23 lung = tested on: NCI-H23 lung
NCI-H460 lung = tested on: NCI-H460 lung
NCI-H522 lung = tested on: NCI-H522 lung
NCI/ADR-RES ovarian = tested on: NCI/ADR-RES ovarian
OVCAR-3 ovarian = tested on: OVCAR-3 ovarian
OVCAR-4 ovarian = tested on: OVCAR-4 ovarian
OVCAR-5 ovarian = tested on: OVCAR-5 ovarian
OVCAR-8 ovarian = tested on: OVCAR-8 ovarian
PC-3 prostate = tested on: PC-3 prostate
RPMI-8226 leukemia = tested on: RPMI-8226 leukemia
RXF 393 renal = tested on: RXF 393 renal
SF-268 CNS = tested on: SF-268 CNS
SF-295 CNS = tested on: SF-295 CNS
SF-539 CNS = tested on: SF-539 CNS
SK-MEL-2 melanoma = tested on: SK-MEL-2 melanoma
SK-MEL-28 melanoma = tested on: SK-MEL-28 melanoma
SK-MEL-5 melanoma = tested on: SK-MEL-5 melanoma
SK-OV-3 ovarian = tested on: SK-OV-3 ovarian
SN12C renal = tested on: SN12C renal
SNB-19 CNS = tested on: SNB-19 CNS
SNB-75 CNS = tested on: SNB-75 CNS
SR leukemia = tested on: SR leukemia
SW-620 colon = tested on: SW-620 colon
T-47D breast = tested on: T-47D breast
U251 CNS = tested on: U251 CNS
UACC-257 melanoma = tested on: UACC-257 melanoma
UACC-62 melanoma = tested on: UACC-62 melanoma
UO-31 renal = tested on: UO-31 renal
TK-10 renal = tested on: TK-10 renal

For `COc1ccc(CC(=O)c2ccc(O)cc2O)cc1`, the GI50 (786-0 renal) was over 100 µM, the TGI (786-0 renal) was over 100 µM and the GI50 (A498 renal) was 29.3 µM. For the same compound, the TGI (A498 renal) was over 100 µM, the GI50 (A549 NSCLC) was over 100 µM and the TGI (A549 NSCLC) was over 100 µM. The GI50 (ACHN renal) was over 100 µM, the TGI (ACHN renal) was over 100 µM and the GI50 (BT-549 breast) was 66.2 µM. It also gave a TGI (BT-549 breast) of over 100 µM, a GI50 (CAKI-1 renal) of 59.6 µM and a TGI (CAKI-1 renal) of over 100 µM. It also gave a GI50 (CCRF-CEM leukemia) of 49.4 µM, a TGI (CCRF-CEM leukemia) of over 100 µM and a GI50 (COLO 205 colon) of over 100 µM. The TGI (COLO 205 colon) was over 100 µM, the GI50 (DU-145 prostate) was over 100 µM and the TGI (DU-145 prostate) was over 100 µM. The GI50 (EKVX NSCLC) was 47.7 µM, the TGI (EKVX NSCLC) was over 100 µM and the GI50 (HCC-2998 colon) was over 100 µM. For the same compound, the TGI (HCC-2998 colon) was over 100 µM, the GI50 (HCT-116 colon) was over 100 µM and the TGI (HCT-116 colon) was over 100 µM. It also gave a GI50 (HCT-15 colon) of over 100 µM, a TGI (HCT-15 colon) of over 100 µM and a GI50 (HL-60(TB) leukemia) of 40.9 µM. The TGI (HL-60(TB) leukemia) was over 100 µM, the GI50 (HOP-62 NSCLC) was over 100 µM and the TGI (HOP-62 NSCLC) was over 100 µM. For the same compound, the GI50 (HOP-92 NSCLC) was 12.3 µM, the TGI (HOP-92 NSCLC) was 62.1 µM and the GI50 (HS 578T breast) was over 100 µM. The TGI (HS 578T breast) was over 100 µM, the GI50 (HT29 colon) was over 100 µM and the TGI (HT29 colon) was over 100 µM. It also gave a GI50 (IGROV1 ovarian) of 53.4 µM, a TGI (IGROV1 ovarian) of over 100 µM and a GI50 (K-562 leukemia) of 40.3 µM. For the same compound, the TGI (K-562 leukemia) was over 100 µM, the GI50 (KM12 colon) was over 100 µM and the TGI (KM12 colon) was over 100 µM. The GI50 (LOX IMVI melanoma) was over 100 µM, the TGI (LOX IMVI melanoma) was over 100 µM and the GI50 (M14 melanoma) was over 100 µM. For the same compound, the TGI (M14 melanoma) was over 100 µM, the GI50 (MALME-3M melanoma) was 45.2 µM and the TGI (MALME-3M melanoma) was over 100 µM. The GI50 (MCF7 breast) was over 100 µM, the TGI (MCF7 breast) was over 100 µM and the GI50 (MDA-MB-231 breast) was over 100 µM. The TGI (MDA-MB-231 breast) was over 100 µM, the GI50 (MDA-MB-435) was over 100 µM and the TGI (MDA-MB-435) was over 100 µM. It also gave a GI50 (MOLT-4 leukemia) of 57.4 µM, a TGI (MOLT-4 leukemia) of over 100 µM and a GI50 (NCI-H226 lung) of over 100 µM. For the same compound, the TGI (NCI-H226 lung) was over 100 µM, the GI50 (NCI-H23 lung) was 63.5 µM and the TGI (NCI-H23 lung) was over 100 µM. For the same compound, the GI50 (NCI-H460 lung) was 56.1 µM, the TGI (NCI-H460 lung) was over 100 µM and the GI50 (NCI-H522 lung) was 60.8 µM. The TGI (NCI-H522 lung) was over 100 µM, the GI50 (NCI/ADR-RES ovarian) was 58.8 µM and the TGI (NCI/ADR-RES ovarian) was over 100 µM. It also gave a GI50 (OVCAR-3 ovarian) of 61.5 µM, a TGI (OVCAR-3 ovarian) of over 100 µM and a GI50 (OVCAR-4 ovarian) of over 100 µM. For the same compound, the TGI (OVCAR-4 ovarian) was over 100 µM, the GI50 (OVCAR-5 ovarian) was over 100 µM and the TGI (OVCAR-5 ovarian) was over 100 µM. It also gave a GI50 (OVCAR-8 ovarian) of over 100 µM, a TGI (OVCAR-8 ovarian) of over 100 µM and a GI50 (PC-3 prostate) of 41.1 µM. It also gave a TGI (PC-3 prostate) of over 100 µM, a GI50 (RPMI-8226 leukemia) of 34 µM and a TGI (RPMI-8226 leukemia) of over 100 µM. The GI50 (RXF 393 renal) was over 100 µM, the TGI (RXF 393 renal) was over 100 µM and the GI50 (SF-268 CNS) was 94.5 µM. For the same compound, the TGI (SF-268 CNS) was over 100 µM, the GI50 (SF-295 CNS) was 46.2 µM and the TGI (SF-295 CNS) was over 100 µM. For the same compound, the GI50 (SF-539 CNS) was over 100 µM, the TGI (SF-539 CNS) was over 100 µM and the GI50 (SK-MEL-2 melanoma) was over 100 µM. For the same compound, the TGI (SK-MEL-2 melanoma) was over 100 µM, the GI50 (SK-MEL-28 melanoma) was over 100 µM and the TGI (SK-MEL-28 melanoma) was over 100 µM. It also gave a GI50 (SK-MEL-5 melanoma) of 48.3 µM, a TGI (SK-MEL-5 melanoma) of over 100 µM and a GI50 (SK-OV-3 ovarian) of over 100 µM. The TGI (SK-OV-3 ovarian) was over 100 µM, the GI50 (SN12C renal) was 93.2 µM and the TGI (SN12C renal) was over 100 µM. For the same compound, the GI50 (SNB-19 CNS) was over 100 µM, the TGI (SNB-19 CNS) was over 100 µM and the GI50 (SNB-75 CNS) was over 100 µM. For the same compound, the TGI (SNB-75 CNS) was over 100 µM, the GI50 (SR leukemia) was over 100 µM and the TGI (SR leukemia) was over 100 µM. It also gave a GI50 (SW-620 colon) of over 100 µM, a TGI (SW-620 colon) of over 100 µM and a GI50 (T-47D breast) of 56.7 µM. It also gave a TGI (T-47D breast) of over 100 µM, a GI50 (U251 CNS) of over 100 µM and a TGI (U251 CNS) of over 100 µM. The GI50 (UACC-257 melanoma) was over 100 µM, the TGI (UACC-257 melanoma) was over 100 µM and the GI50 (UACC-62 melanoma) was 93 µM. The TGI (UACC-62 melanoma) was over 100 µM, the GI50 (UO-31 renal) was 15.4 µM and the TGI (UO-31 renal) was over 100 µM.
`O=C1CC(NCc2ccccc2)c2c(Cl)sc(Cl)c21` (stereo unspecified) showed a TGI (786-0 renal) of 57.8 µM, a TGI (A498 renal) of over 100 µM and a TGI (A549 NSCLC) of over 100 µM. For the same compound, the TGI (ACHN renal) was 52.8 µM, the TGI (BT-549 breast) was 69.8 µM and the TGI (CAKI-1 renal) was 53 µM. It also gave a TGI (CCRF-CEM leukemia) of 9.44 µM, a TGI (COLO 205 colon) of 56 µM and a TGI (DU-145 prostate) of over 66.5 µM. The TGI (EKVX NSCLC) was over 100 µM, the TGI (HCC-2998 colon) was 35.7 µM and the TGI (HCT-116 colon) was 33.1 µM. It also gave a TGI (HCT-15 colon) of 46.9 µM, a TGI (HL-60(TB) leukemia) of 41.6 µM and a TGI (HOP-62 NSCLC) of over 88.1 µM. The TGI (HOP-92 NSCLC) was 64.8 µM, the TGI (HS 578T breast) was over 82.5 µM and the TGI (HT29 colon) was 74.5 µM. For the same compound, the TGI (IGROV1 ovarian) was over 64.6 µM, the TGI (K-562 leukemia) was over 100 µM and the TGI (KM12 colon) was over 93.2 µM. It also gave a TGI (LOX IMVI melanoma) of 18.5 µM, a TGI (M14 melanoma) of over 63.6 µM and a TGI (MALME-3M melanoma) of 44.4 µM. It also gave a TGI (MCF7 breast) of 50.3 µM, a TGI (MDA-MB-231 breast) of 66.4 µM and a TGI (MDA-MB-435) of 85.2 µM. For the same compound, the TGI (MOLT-4 leukemia) was 43.2 µM, the TGI (NCI-H226 lung) was over 63.5 µM and the TGI (NCI-H23 lung) was 39.5 µM. For the same compound, the TGI (NCI-H460 lung) was over 100 µM, the TGI (NCI-H522 lung) was 18.3 µM and the TGI (NCI/ADR-RES ovarian) was over 86.3 µM. For the same compound, the TGI (OVCAR-3 ovarian) was 47.3 µM, the TGI (OVCAR-4 ovarian) was over 87.3 µM and the TGI (OVCAR-5 ovarian) was over 100 µM. The TGI (OVCAR-8 ovarian) was 48.5 µM, the TGI (PC-3 prostate) was 43 µM and the TGI (RPMI-8226 leukemia) was 6.82 µM. For the same compound, the TGI (SF-268 CNS) was 50.2 µM, the TGI (SF-295 CNS) was over 100 µM and the TGI (SF-539 CNS) was 57.5 µM. It also gave a TGI (SK-MEL-2 melanoma) of 51.5 µM, a TGI (SK-MEL-28 melanoma) of 76.7 µM and a TGI (SK-MEL-5 melanoma) of over 100 µM. The TGI (SK-OV-3 ovarian) was over 100 µM, the TGI (SN12C renal) was 58 µM and the TGI (SNB-19 CNS) was over 100 µM. For the same compound, the TGI (SNB-75 CNS) was 80.6 µM, the TGI (SR leukemia) was over 100 µM and the TGI (SW-620 colon) was over 87.4 µM. For the same compound, the TGI (T-47D breast) was over 100 µM, the TGI (TK-10 renal) was over 68.7 µM and the TGI (U251 CNS) was 43.4 µM. It also gave a TGI (UACC-257 melanoma) of over 63 µM, a TGI (UACC-62 melanoma) of 24.3 µM and a TGI (UO-31 renal) of 75.7 µM.
